Where two headings read alike, the source gives them in different places. Marks after values point to notes of the source that are not given here.
Key:
hyperlipidaemic rats = assay: Triton WR1339 (tyloxapol) induced hyperlipidaemia in rats; format: in vivo, Wistar rats; conditions: tyloxapol 200 mg/kg i.p.; for inhibition in vivo at 150 µmol/kg / inhibition in vivo at 300 µmol/kg / inhibition in vivo at 500 µmol/kg: Rattus norvegicus, ip, 24 h; for inhibition in vivo at 300 µmol/kg: 300 μmol/kg i.p.; for inhibition in vivo at 500 µmol/kg: 500 μmol/kg i.p.
Description: The pleiotropic effects of statins, used as hypolipidaemic drugs, include antioxidant ability and direct increase of eNOS activity, in addition to inhibition of 3-hydroxy-3-methylglutaryl coenzyme A (HMG-CoA) reductase. […] The systemic administration of Triton-WR1339 (tyloxapol) to rats induces a biphasic elevation of plasma cholesterol, atherogenic VLDL cholesterol and LDL cholesterol, as well as triglyceride levels. […] Agents shown to be active in phase I are considered to interfere with cholesterol biosynthesis.
κ-Carrageenan and lipoxygenase type I-B from soybean were purchased from Sigma (St. Louis, MO, U.S.A.). For the in vivo experiments, Wistar rats (180–220 g, 3–4 months old) were kept in the Centre of the School of Veterinary Medicine (EL54 BIO42), Aristotelian University of Thessaloniki, which is registered by the official state veterinary authorities (presidential degree 56/2013, in harmonization with the European Directive 2010/63/EEC). The experimental protocols were approved by the Animal Ethics Committee of the Prefecture of Central Macedonia (no. 270079/2500).
Hyperlipidaemia was induced by the i.p. administration of Triton WR 1339 (200 mg/kg) to rats. […] Blood was taken from the aorta after 24 h, for the determination of plasma total cholesterol, LDL-cholesterol and triglyceride concentrations, using commercial kits.

[1] = In vitro nitrogen monoxide release (Griess reagent)
Method: Due to their poor aqueous solubility, compounds 1, 3-7 and 9 were dissolved in 7/3 (v/v) mixture of DMSO/water at various concentrations and incubated overnight at room temperature in the presence of cadmium. S-nitroso-N-acetylpenicillamine (SNAP) was dissolved either in DMSO/water 7/3 or in water and treated as above.
Aliquots were taken from each sample and added to an equal volume of N-naphthylaminoethylamine (0.2%) and sulfanilamide (2%) solution in 3 N hydrochloric acid (Griess reagent). Appropriate sodium nitrite solutions in the same DMSO/water mixture were used for the construction of the standard curve and values were identical to those obtained with aqueous solutions. Nitric oxide release was estimated spectrophotometrically (540 nm).

soybean lipoxygenase 1-B = biological target: T1, soybean lipoxygenase 1-B (Glycine max, UniProt P08170); assay: In vitro soybean lipoxygenase inhibition, linoleate as substrate; format: biochemical; conditions: sodium linoleate 100 μM; after 7 min of incubation; pH 9.0, 28 °C
T1 construct: purchased Sigma (St. Louis, MO, U.S.A.)
T1 sequence (P08170 1-839): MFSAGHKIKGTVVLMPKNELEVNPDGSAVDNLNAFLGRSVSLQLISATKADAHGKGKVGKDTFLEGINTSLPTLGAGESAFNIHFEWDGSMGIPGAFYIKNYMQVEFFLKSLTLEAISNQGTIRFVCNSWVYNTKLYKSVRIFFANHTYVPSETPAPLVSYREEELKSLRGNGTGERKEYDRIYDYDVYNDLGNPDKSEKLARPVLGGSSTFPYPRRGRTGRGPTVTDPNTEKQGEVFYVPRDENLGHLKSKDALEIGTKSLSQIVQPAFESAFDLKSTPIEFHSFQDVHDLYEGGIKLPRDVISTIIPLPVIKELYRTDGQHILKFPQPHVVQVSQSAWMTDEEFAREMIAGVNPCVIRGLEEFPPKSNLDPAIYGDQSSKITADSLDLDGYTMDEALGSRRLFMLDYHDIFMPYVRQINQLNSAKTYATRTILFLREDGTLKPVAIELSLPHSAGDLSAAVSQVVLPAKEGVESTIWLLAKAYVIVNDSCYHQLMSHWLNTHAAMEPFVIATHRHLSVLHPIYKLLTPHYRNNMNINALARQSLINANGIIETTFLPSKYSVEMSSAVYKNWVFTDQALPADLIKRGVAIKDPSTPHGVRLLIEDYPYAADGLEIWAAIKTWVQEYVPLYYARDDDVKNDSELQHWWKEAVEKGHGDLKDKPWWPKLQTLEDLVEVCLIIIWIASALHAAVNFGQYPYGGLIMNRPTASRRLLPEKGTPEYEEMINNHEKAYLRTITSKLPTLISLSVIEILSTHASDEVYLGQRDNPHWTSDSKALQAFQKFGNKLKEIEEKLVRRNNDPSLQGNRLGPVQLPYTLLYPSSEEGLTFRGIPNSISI
Method: The reaction mixture contained the examined compounds (in absolute ethanol, 1–300 μM), soybean lipoxygenase (in saline, 250 u/mL) and sodium linoleate (100 μM), in Tris–HCl buffer, pH 9.0. The reaction was monitored for 7 min at 28 °C, recording the absorbance at 234 nm. […]

[2] = tested on: carrageenan-induced rat paw oedema; assay: Carrageenan-induced rat paw oedema; format: in vivo, Wistar rats; conditions: 0.15 mmol/kg i.p., oedema after 3.5 h, vs carrageenan-only controls; for inhibition in vivo at 150 µmol/kg: Rattus norvegicus, ip, read-out: % Oedema Reduction
Method: The carrageenan-induced paw oedema is a well-known and widely used model of acute inflammation. The response to carrageenan inflammation may be divided into three phases. In the first phase (after 1.5 h), histamine and serotonin are released, the second phase (1.5–2.5 h after carrageenan administration) is mediated by kinins, whereas, in the third phase, more than two hours post administration, neutrophil infiltration, prostaglandin production and release of pro-inflammatory cytokines are involved. In this work, oedema was measured 3.5 h post injection.
κ-Carrageenan and lipoxygenase type I-B from soybean were purchased from Sigma (St. Louis, MO, U.S.A.).
The tested compounds (in water with a few drops of Tween 80) were given i.p. (0.15 mmol/kg) to rats, just after the i.d. injection of 0.1 mL of an aqueous carrageenan solution (1% w/v) in the hind paw of rats. The produced oedema, after 3.5 h, was estimated as paw weight increase.

[3] = Interaction with the stable radical DPPH; conditions: DPPH 200 μΜ, after 30 min
Method: (§1) The antioxidant activity of compounds was estimated by the inhibition of rat hepatic microsomal membrane lipid peroxidation, induced by Fe^+2/ascorbate, estimated as 2-thiobarbituric acid (TBA) reactive material, and by their interaction with the N-centred 1,1-diphenyl-2-picrylhydrazyl (DPPH) stable free radical. […] The percent interaction with DPPH and the IC50 values of compounds 7–9 on rat hepatic microsomal membrane lipid peroxidation, after 45 min of incubation is shown in Table 4.
Compounds (in absolute ethanol, final concentrations 25–200 μM) were added to an ethanolic solution of DPPH (final concentration 200 μM) at room temperature (22 ± 2 °C). Absorbance (517 nm) was recorded after 30 min.

[4] = tested on: rat hepatic microsomal membrane lipid peroxidation; assay: Fe2+/ascorbate induced lipid peroxidation, TBA reactive material; format: biochemical; conditions: after 45 min of incubation; read-out: Inhibition of Lipid Peroxidation IC50
Method: as §1
The peroxidation of heat-inactivated (90°, 90 s) rat liver microsomal fraction was induced by ascorbic acid (0.2 mM) and ferrous sulphate (10 μΜ). The studied compounds, in dimethylsulfoxide, were added at concentrations 1 μM–1 mM. Aliquots were taken from the incubation mixture (37 °C) for 45 min. Lipid peroxidation was assessed spectrophotometrically (535/600 nm) as 2-thiobarbituric acid reactive material. All compounds and solvents were found not to interfere with the assay.

[5] = 150 μmol/kg i.p., plasma after 24 h, read-out: % Reduction LDL-C (LDL cholesterol)
[6] = 150 μmol/kg i.p., plasma after 24 h, read-out: % Reduction TC (total cholesterol)
[7] = 150 μmol/kg i.p., plasma after 24 h, read-out: % Reduction TG (triglycerides)
[8] = compound 31.25 μM, DMSO/water 7/3, overnight, cadmium
[9] = compound 62.5 μM, DMSO/water 7/3, overnight, cadmium
[10] = compound 125 μM, DMSO/water 7/3, overnight, cadmium
[11] = compound 250 μM, DMSO/water 7/3, overnight, cadmium
[12] = compound 500 μM, DMSO/water 7/3, overnight, cadmium
[13] = read-out: % Reduction LDL-C (LDL cholesterol)
[14] = read-out: % Reduction TC (total cholesterol)
[15] = read-out: % Reduction TG (triglycerides)

Q: Which results are given for `CC(C)Cc1ccc(C(C)C(=O)OCCO[N+](=O)[O-])cc1` (racemic) [Compound 1, (±)-2-(Nitrooxy)ethyl 2-(4-isobutylphenyl)propanoate]?
A: inhibition in vivo at 150 µmol/kg (hyperlipidaemic rats; [5]): 80%; inhibition in vivo at 150 µmol/kg (hyperlipidaemic rats; [6]): 62.2%; inhibition in vivo at 150 µmol/kg (hyperlipidaemic rats; [7]): 30.1%; NO Release [1, 8]: 7 μΜ; NO Release [1, 9]: 17 μΜ; NO Release [1, 10]: 40 μΜ; NO Release [1, 11]: 82 μΜ; NO Release [1, 12]: 116 μΜ; IC50 (soybean lipoxygenase 1-B): 46 µM; inhibition in vivo at 150 µmol/kg [2]: 76%

Q: Which IC50 (soybean lipoxygenase 1-B) does the source give for `CC(C)Cc1ccc(C(C)C(=O)OCCc2ccc([N+](=O)[O-])cc2)cc1` (racemic) [Compound 2, (±)-4-Nitrophenethyl 2-(4-isobutylphenyl)propanoate] here?
A: 24 µM

Q: And the inhibition in vivo at 150 µmol/kg [2]?
A: 53%

Q: For `CC(C(=O)OCCO[N+](=O)[O-])c1cccc(C(=O)c2ccccc2)c1` (racemic) [Compound 5, (±)-2-(Nitrooxy)ethyl 2-(3-benzoylphenyl)propanoate], which inhibition in vivo at 150 µmol/kg (hyperlipidaemic rats; [5]) is on record?
A: 57.8%

Q: And the inhibition in vivo at 150 µmol/kg (hyperlipidaemic rats; [6])?
A: 46.6%

Q: And the inhibition in vivo at 150 µmol/kg (hyperlipidaemic rats; [7])?
A: 40.2%

Q: And the “NO Release” value [1, 8]?
A: 4 μΜ

Q: What about the “NO Release” value [1, 9] of the same compound?
A: 11 μΜ

Q: What about the “NO Release” value [1, 10] of the same compound?
A: 26 μΜ

Q: What about the “NO Release” value [1, 11] of the same compound?
A: 57 μΜ

Q: What about the “NO Release” value [1, 12] of the same compound?
A: 100 μΜ

Q: What about the IC50 (soybean lipoxygenase 1-B) of the same compound?
A: 86 µM

Q: What about the inhibition in vivo at 150 µmol/kg [2] of the same compound?
A: 75%

Q: What does the source list for `COc1ccc2cc(C(C)C(=O)OCCO[N+](=O)[O-])ccc2c1` (single isomer, unassigned; (+)) [Compound 4, (+)-2-(Nitrooxy)ethyl 2-(6-methoxynaphthalen-2-yl)propanoate]?
A: inhibition in vivo at 150 µmol/kg (hyperlipidaemic rats; [5]): 84.6%; inhibition in vivo at 150 µmol/kg (hyperlipidaemic rats; [6]): 80%; inhibition in vivo at 150 µmol/kg (hyperlipidaemic rats; [7]): 38.9%; NO Release [1, 8]: 2.5 μΜ; NO Release [1, 9]: 7 μΜ; NO Release [1, 10]: 17 μΜ; NO Release [1, 11]: 37 μΜ; NO Release [1, 12]: 73 μΜ; IC50 (soybean lipoxygenase 1-B): > 300 µM; % Oedema Reduction [2]: 70 ** %; inhibition in vivo at 150 µmol/kg [2]: 70%

Q: What does the source list for `O=C(/C=C/c1ccccc1)OCCO[N+](=O)[O-]` [Compound 6, (E)-2-(Nitrooxy)ethyl cinnamate]?
A: inhibition in vivo at 150 µmol/kg (hyperlipidaemic rats; [5]): 74.8%; inhibition in vivo at 150 µmol/kg (hyperlipidaemic rats; [6]): 70.9%; inhibition in vivo at 150 µmol/kg (hyperlipidaemic rats; [7]): 54.4%; NO Release [1, 8]: 5 μΜ; NO Release [1, 9]: 11 μΜ; NO Release [1, 10]: 22 μΜ; NO Release [1, 11]: 51 μΜ; NO Release [1, 12]: 98 μΜ; IC50 (soybean lipoxygenase 1-B): 220 µM; inhibition in vivo at 150 µmol/kg [2]: 61%

Q: Which inhibition in vivo at 300 µmol/kg (hyperlipidaemic rats; [13]) does the source give for `CC(C)Cc1ccc(C(C)C(=O)O)cc1` (stereo not shown) [Ibuprofen, reference compound] here?
A: 41.6%

Q: What about the inhibition in vivo at 300 µmol/kg (hyperlipidaemic rats; [14]) of the same compound?
A: 41%

Q: What about the inhibition in vivo at 300 µmol/kg (hyperlipidaemic rats; [15]) of the same compound?
A: 38%

Q: What about the inhibition in vivo at 150 µmol/kg [2] of the same compound?
A: 36%

Q: Which inhibition in vivo at 150 µmol/kg [2] does the source give for `COc1ccc2c(c1)c(CC(=O)O)c(C)n2C(=O)c1ccc(Cl)cc1` [Indomethacin, reference compound] here?
A: 42%

Q: With `COc1ccc2cc([C@H](C)C(=O)O)ccc2c1` [Naproxen, reference compound] as the compound, how does the inhibition in vivo at 500 µmol/kg (hyperlipidaemic rats; [13]) read?
A: 25.5%

Q: And the inhibition in vivo at 500 µmol/kg (hyperlipidaemic rats; [14])?
A: 53%

Q: What about the inhibition in vivo at 500 µmol/kg (hyperlipidaemic rats; [15]) of the same compound?
A: 43.5%

Q: What about the inhibition in vivo at 150 µmol/kg [2] of the same compound?
A: 11%

Q: Which “% Reduction TG (triglycerides)” value (hyperlipidaemic rats; 150 μmol/kg i.p., plasma after 24 h) does the source give for `CCC(C)(C)C(=O)O[C@H]1C[C@@H](C)C=C2C=C[C@H](C)[C@H](CC[C@@H]3C[C@@H](O)CC(=O)O3)[C@H]21` [Simvastatin, reference compound] here?
A: no effect

Q: And the inhibition in vivo at 150 µmol/kg (hyperlipidaemic rats; [5])?
A: 70%

Q: With `Cc1c(C)c2c(c(C)c1O)CCC(C)(C(=O)O)O2` (stereo not shown) [Trolox, 6-hydroxy-2,5,7,8-tetramethylchroman-2-carboxylic acid, reference compound] as the compound, how does the IC50 (soybean lipoxygenase 1-B) read?
A: > 300 µM

Q: And the “Percent Interaction with DPPH” value ([3]; compound 50 μΜ)?
A: 38%

Q: And the “Percent Interaction with DPPH” value ([3]; compound 100 μΜ)?
A: 90%

Q: What about the “Percent Interaction with DPPH” value ([3]; compound 200 μΜ) of the same compound?
A: 92%

Q: And the IC50 [4]?
A: 25 µM

Q: Which NO Release ([1]; 100 μM compound, in water) does the source give for “S-nitroso-N-acetylpenicillamine [SNAP, reference compound]” here?
A: 56.7 μΜ

Q: And the NO Release ([1]; per 100 μM compound, DMSO/water 7/3)?
A: 56.3 μΜ

Reference: article PMC6982741, “Design, Synthesis and Study of Nitrogen Monoxide Donors as Potent Hypolipidaemic and Anti-Inflammatory Agents” (Molecules, 2019)
